Structures can show the parent of a compound that is named as a salt.
Row | melting point [°C] | Compound
1 | 180 to 190 | C[N+](C)(C)CCOC(=O)OC[C@@H]1CC(c2ccc(-c3ccc(N4C[C@H](Cn5ccnn5)OC4=O)cc3F)cn2)=NO1 (as salt: chloride) [Example 32, 2-[({[(5S)-3-(5-{2-fluoro-4-[(5R)-2-oxo-5-(1H-1,2,3-triazol-1-ylmethyl)-1,3-oxazolidin-3-yl]phenyl}pyridin-2-yl)-4,5-dihydrolsoxazol-5-yl]methoxy}carbonyl)oxy]-N,N,N-trimethylethanaminium chloride]
2 | 68 to 75 | NCCC(=O)OC[C@@H]1CC(c2ccc(-c3ccc(N4C[C@H](Cn5ccnn5)OC4=O)cc3F)cn2)=NO1 (as salt: hydrochloride) [Example 8, [(5S)-3-(5-{2-Fluoro-4-[(5R)-2-oxo-5-(1H-1,2,3-triazol-1-ylmethyl)-1,3-oxazolidin-3-yl]phenyl}pyridin-2-yl)-4,5-dihydroisoxazol-5-yl]methyl β-alaninate]
3 | 175 to 180 | CN(C)CC(=O)OCC1CC(c2ccc(-c3ccc(N4C[C@H](Cn5ccnn5)OC4=O)cc3F)cn2)=NO1 (stereo partly drawn) (as salt: hydrochloride) [Example 26, [3-(5-{2-fluoro-4-[(5R)-2-oxo-5-(1H-1,2,3-triazol-1-ylmethyl)-1,3-oxazolidin-3-yl]phenyl}pyridin-2-yl)-4,5-dihydroisoxazol-5-yl]methyl N,N-dimethylglycinate]
4 | 184 | CNCCCCC(=O)OC[C@@H]1CC(c2ccc(-c3ccc(N4C[C@H](Cn5ccnn5)OC4=O)cc3F)cn2)=NO1 (as salt: hydrochloride) [Example 37, [(5S)-3-(5-{2-fluoro-4-[(5R)-2-oxo-5-(1H-1,2,3-triazol-1-ylmethyl)-1,3-oxazolidin-3-yl]phenyl}pyridin-2-yl)-4,5-dihydroisoxazol-5-yl]methyl 5-(methylamino)pentanoate]
5 | 133 | CN(C)CC(=O)N(C)CCCCC(=O)OC[C@@H]1CC(c2ccc(-c3ccc(N4C[C@H](Cn5ccnn5)OC4=O)cc3F)cn2)=NO1 (as salt: hydrochloride) [Example 38, [(5S)-3-(5-{2-fluoro-4-[(5R)-2-oxo-5-(1H-1,2,3-triazol-1-ylmethyl)-1,3-oxazolidin-3-yl]phenyl}pyridin-2-yl)-4,5-dihydroisoxazol-5-yl]methyl 5-[(N,N-dimethylglycyl)(methyl)amino]pentanoate]
6 | 88 | CCOC(=O)CCCCC(=O)OC[C@@H]1CC(c2ccc(-c3ccc(N4C[C@H](Cn5ccnn5)OC4=O)cc3F)cn2)=NO1 [Example 6, Ethyl [(5S)-3-(5-{2-fluoro-4-[(5R)-2-oxo-5-(1H-1,2,3-triazol-1-ylmethyl)-1,3oxazolidin-3-yl]phenyl}pyridin-2-yl)-4,5-dihydroisoxazol-5-yl]methyl hexanedioate]
7 | 148 | CN(C)CCCC(=O)OC[C@@H]1CC(c2ccc(-c3ccc(N4C[C@H](Cn5ccnn5)OC4=O)cc3F)cn2)=NO1 [Example 9, [(5S)-3-(5-{2-Fluoro-4-[(5R)-2-oxo-5-(1H-1,2,3-triazol-1-ylmethyl)-1,3-oxazolidin-3-yl]phenyl}pyridin-2-yl)-4,5-dihydroisoxazol-5-yl]methyl 4-(dimethylamino)butanoate]
8 | 90 | COC(=O)NCCCCC(=O)OC[C@@H]1CC(c2ccc(-c3ccc(N4C[C@H](Cn5ccnn5)OC4=O)cc3F)cn2)=NO1 [Example 10, [(5S)-3-(5-{2-Fluoro-4-[(5R)-2-oxo-5-(1H-1,2,3-triazol-1-ylmethyl)-1,3-oxazolidin-3-yl]phenyl}pyridin-2-yl)-4,5-dihydroisoxazol-5-yl]methyl 5-[(methoxycarbonyl)amino]pentanoate]
9 | 167 | CCN(CC)CCC(=O)OC[C@@H]1CC(c2ccc(-c3ccc(N4C[C@H](Cn5ccnn5)OC4=O)cc3F)cn2)=NO1 [Example 11, [(5S)-3-(5-{2-Fluoro-4-[(5R)-2-oxo-5-(1H-1,2,3-triazol-1-ylmethyl)-1,3-oxazolidin-3-yl]phenyl}pyridin-2-yl)-4,5-dihydroisoxazol-5-yl]methyl N,N-diethyl-β-alaninate]
10 | 170 | COCC(=O)OC[C@@H]1CC(c2ccc(-c3ccc(N4C[C@H](Cn5ccnn5)OC4=O)cc3F)cn2)=NO1 [Example 12, [(5S)-3-(5-{2-Fluoro-4-[(5R)-2-oxo-5-(1H-1,2,3-triazol-1-ylmethyl)-1,3-oxazolidin-3-yl]phenyl}pyridin-2-yl)-4,5-dihydroisoxazol-5-yl]methyl methoxyacetate]
11 | 149 | COCCC(=O)OC[C@@H]1CC(c2ccc(-c3ccc(N4C[C@H](Cn5ccnn5)OC4=O)cc3F)cn2)=NO1 [Example 13, [(5S)-3-(5-{2-Fluoro-4-[(5R)-2-oxo-5-(1H-1,2,3-triazol-1-ylmethyl)-1,3-oxazolidin-3-yl]phenyl}pyridin-2-yl)-4,5-dihydroisoxazol-5-yl]methyl 3-methoxypropanoate]
12 | 205 | COC(=O)OC[C@@H]1CC(c2ccc(-c3ccc(N4C[C@H](Cn5ccnn5)OC4=O)cc3F)cn2)=NO1 [Example 14, [(5S)-3-(5-{2-Fluoro-4-[(5R)-2-oxo-5-(1H-1,2,3-triazol-1-ylmethyl)-1,3-oxazolidin-3-yl]phenyl}pyridin-2-yl)-4,5-dihydroisoxazol-5-yl]methyl methyl carbonate]
13 | 112 | COCCOC(=O)OC[C@@H]1CC(c2ccc(-c3ccc(N4C[C@H](Cn5ccnn5)OC4=O)cc3F)cn2)=NO1 [Example 15, [(5S)-3-(5-{2-Fluoro-4-[(5R)-2-oxo-5-(1H-1,2,3-triazol-1-ylmethyl)-1,3-oxazolidin-3-yl]phenyl}pyridin-2-yl)-4,5-dihydroisoxazol-5-yl]methyl 2-methoxyethyl carbonate]
14 | 154 | COCCCC(=O)OC[C@@H]1CC(c2ccc(-c3ccc(N4C[C@H](Cn5ccnn5)OC4=O)cc3F)cn2)=NO1 [Example 17, [(5S)-3-(5-{2-Fluoro-4-[(5R)-2-oxo-5-(1H-1,2,3-triazol-1-ylmethyl)-1,3-oxazolidin-3-yl]phenyl}pyridin-2-yl)-4,5-dihydroisoxazol-5-yl]methyl 4-methoxybutanoate]
15 | 255 | O=C(OC[C@@H]1CC(c2ccc(-c3ccc(N4C[C@H](Cn5ccnn5)OC4=O)cc3F)cn2)=NO1)c1ccc[n+]([O-])c1 [Example 25, [(5S)-3-(5-{2-fluoro-4-[(5R)-2-oxo-5-(1H-1,2,3-triazol-1-ylmethyl)-1,3-oxazolidin-3-yl]phenyl}pyridin-2-yl)-4,5-dihydroisoxazol-5-yl]methyl nicotinate 1-oxide]
16 | 183 | CCOC(=O)NCCCCC(=O)OCC1CC(c2ccc(-c3ccc(N4C[C@H](Cn5ccnn5)OC4=O)cc3F)cn2)=NO1 (stereo partly drawn) [Example 27, [(5S)-3-(5-{2-fluoro-4-[(5R)-2-oxo-5-(1H-1,23-triazol-1-ylmethyl)-1,3-oxazolidin-3-yl]phenyl}pyridin-2-yl)-4,5-dihydroisoxazol-5-yl]methyl 5-[(ethoxycarbonyl)amino]pentanoate]
17 | 142 | COCCCOC(=O)OC[C@@H]1CC(c2ccc(-c3ccc(N4C[C@H](Cn5ccnn5)OC4=O)cc3F)cn2)=NO1 [Example 29, (5S)-3-(5-{2-fluoro-4-[(5R)-2-oxo-5-(1H-1,2,3-triazol-1-ylmethyl)-1,3-oxazolidin-3-yl]phenyl}pyridin-2-yl)-4,5-dihydroisoxazol-5-yl]methyl 3-methoxypropyl carbonate]
18 | 205 to 226 | O=C(OC[C@@H]1CC(c2ccc(-c3ccc(N4C[C@H](Cn5ccnn5)OC4=O)cc3F)cn2)=NO1)c1cnccn1 [Example 30, [(5S)-3-(5-{2-fluoro-4-[(5R)-2-oxo-5-(1H-1,2,3-triazol-1-ylmethyl)-1,3-oxazolidin-3-yl]phenyl}pyridin-2-yl)-4,5-dihydroisoxazol-5-yl]methylpyrazine-2-carboxylate]
19 | 253 to 264 | O=C(OC[C@@H]1CC(c2ccc(-c3ccc(N4C[C@H](Cn5ccnn5)OC4=O)cc3F)cn2)=NO1)c1cncnc1 [Example 31]
20 | 82 | COC(=O)N(C)CCCCC(=O)OC[C@@H]1CC(c2ccc(-c3ccc(N4C[C@H](Cn5ccnn5)OC4=O)cc3F)cn2)=NO1 [Example 33, [(5S)-3-(5-{2-fluoro-4-[(5R)-2-oxo-5-(1H-1,2,3-triazol-1-ylmethyl)-1,3-oxazolidin-3-yl]phenyl}pyridin-2-yl)-4,5-dihydroisoxazol-5-yl]methyl 5-[(methoxycarbonyl)(methyl)amino]pentanoate]
21 | 135 | COC(=O)N(C)CCCC(=O)OC[C@@H]1CC(c2ccc(-c3ccc(N4C[C@H](Cn5ccnn5)OC4=O)cc3F)cn2)=NO1 [Example 35, [(5S)-3-(5-{2-fluoro-4-[(5R)-2-oxo-5-(1H-1,2,3-triazol-1-ylmethyl)-1,3-oxazolidin-3-yl]phenyl}pyridin-2-yl)-4,5-dihydroisoxazol-5-yl]methyl 4-[(methoxycarbonyl)(methyl)amino]butanoate]
22 | 103 | COC(=O)N(C)CCCCCC(=O)OC[C@@H]1CC(c2ccc(-c3ccc(N4C[C@H](Cn5ccnn5)OC4=O)cc3F)cn2)=NO1 [Example 36, [(5S)-3-(5-{2-fluoro-4-[(5R)-2-oxo-5-(1H-1,2,3-triazol-1-ylmethyl)-1,3-oxazolidin-3-yl]phenyl}pyridin-2-yl)-4,5-dihydroisoxazol-5-yl]methyl 6-[(methoxycarbonyl)(methyl)amino]hexanoate]

Row | Compound | melting point [°C]
23 | CN(CCCCC(=O)OC[C@@H]1CC(c2ccc(-c3ccc(N4C[C@H](Cn5ccnn5)OC4=O)cc3F)cn2)=NO1)C(=O)OC(C)(C)C [Example 34, [(5S)-3-(5-{2-fluoro-4-[(5R)-2-oxo-5-(1H-1,2,3-triazol-1-ylmethyl)-1,3-oxazolidin-3-yl]phenyl}pyridin-2-yl)-4,5-dihydroisoxazol-5-yl]methyl 5-[(tert-butoxycarbonyl)(methyl)amino]pentanoate] | 121

From patent US7192974B2, “Hydroxymethyl substituted dihydroisoxazole derivatives useful as antibiotic agents” (AstraZeneca AB, priority 2003, dated 2007)
